# From article PMC8750417, “Intracellular Amplifiers of Reactive Oxygen Species Affecting Mitochondria as Radiosensitizers” (Cancers, 2021)
# How the values were obtained:
# [1] = tested on: chronic lymphocytic leukemia (CLL) cells; assay: Viability of primary CLL cells (CellTiter Glo); assay type: cell-based, human; settings: viability of CLL vs MNC, 48 h; for 2c at 3.3 and 10 µM
# Excerpt: Determination of viability of primary cancer (CLL) and normal (MNC) cells in the […]
# Clinical samples from chronic lymphocytic leukemia (CLL) patients (N=6, CLL cells) and healthy donors (N=6; peripheral blood mononuclear cells, MNCs) were collected at the University Hospital Heidelberg, Germany. Informed consent was obtained in accordance with the Declaration of Helsinki. Sample collection and analysis was approved by the ethics committee of the University of Heidelberg (S-254/2016). Blood was separated by a Ficoll gradient (GE Healthcarey), and cells were cryopreserved. Drug sensitivity screening was performed in 384-well format (Greiner Bio One) with 10 different prodrug […]
# 4x10^4 cells per well. Cells were cultured in RPMI-1640 (Invitrogen) supplemented with penicillin/streptomycin (Invitrogen), L-glutamine (Invitrogen) and 10% pooled and heat inactivated AB-type human serum (Sigma-Aldrich). Cell viability was assessed by quantification of ATP (CellTiter Glo®, Promega) 48 hours after drug application.
# Luminescence was measured on a Tecan Infinite F200 Microplate Reader. Viability was calculated as % of solvent (DMSO) treated control. Representative plots of cell viability
# [2] = n-octanol/water partition coefficient (logP) by RP-TLC; assay type: physicochemical; settings: for logP (Hydrolyzed Prodrug): n-octanol/water partition coefficient of the hydrolyzed boronic acid (_BA) form of the prodrug named; for logP (Prodrug): n-octanol/water partition coefficient of the intact prodrug (or control 2c_c), RP-TLC, MOPS pH 7.4
# Protocol: Determination of n-octanol/water partition coefficients (LogP) […]
# mixture of dichloromethane/CH3OH at proper concentrations. Commercially available […]
# 7.4) (6/4, v/v) was used. The solvent migration distance was around 4.5 cm. The plates […]
# and its distance was manually measured. All measurements were done in at least triplicate and average values were used in further calculations. All experiments were performed at ambient temperature (22 ± 2 °C). […]
# A2780 cells = assay: Cell viability, MTT assay, A2780; assay type: cell-based, human
# Protocol: (§1) Determination of viability of cells in the presence of prodrugs and controls A2780 and BL-2 cells The medium was removed, and the cells were washed two times with DPBS, trypsinated, and resuspended in RPMI 1640 medium (A2780) supplemented with 5% FBS (for 24 h and 48 h assay) or 10% FBS (for 96 h assay) , 1% L-glutamine, and 1% penicillin/streptomycin.
# (§2) A2780 cells: This suspension was spread in the wells of a 96 -well microtiter plate (25000 cells for A2780 per well per 100 μL) and left standing at 37 °C in the chamber filled with CO2 (5%) for overnight. Stock solutions of prodrugs of different concentra tions (1 μL, solvent dmso, final concentrations in wells were 2, 5, 10, 30, 50 μM) were added to the wells and incubated for specific periods of time. Four experiments were conducted for each concentration of the prodrug. Finally, 3-(4,5-dimethylthiazol-2-yl)-2,5-diphenyltetrazolium bromide (MTT, 20 μL of the solution prepared by dissolving MTT (5 mg) in DPBS buffer (1 mL)) was added to each well, incubated for 3 h, treated with sodium dodecyl sulfate (SDS) solution (90 μL, 10% solution in 0.01 M aqueous HC l), and incubated overnight. Afterward, the intensity of the absorbance at 590 nm was measured.
# (§3) MTT is converted in live cells to blue dye with the absorbance maximum λ max at 590 nm.
# The absorbance at 690 nm was taken as a baseline value. The baseline corrected absorbance at 590 nm (A(590 nm) − A(690 nm)) was applied to calculate the relative number of viable cells. IC50 values were determined by fitting the experimental data expressing the number of viable cells (%, Y-axis) versus drug concentration (μM, X-axis) with a line curve and the X-axis value corresponding to 50% viability was considered as IC50 value according to the line curve (Figure S50, Table S2). […]
# [3] = Solubility in RPMI 1640 medium, precipitation seen by bright field optical microscopy; settings: DMSO 1%; for Solubility: 48 h incubation in RPMI 1640, FBS 5%, first signs of precipitation
# Protocol: The latter medium was selected, since we used it for the cellular assays. […] Then we monitored the formation of (not detectable in the previous experiment) aggregated species in prodrug solutions that appeared transparent (concentrations < 50 µM) by using dynamic light scattering. […]
# Solubility of drugs in aqueous buffers
# Observing prodrug precipitation by using bright field optical microscopy […]
# glutamine (1 %), and penicillin/streptomycin (1 %) was filled into 96-well microtiter plates (100 µL for each well) and compounds in DMSO stock solution (1 µL) were added. Each well was monitored by using bright field optical microscopy both immediately after […]
# [4] = Prodrug-induced generation of ROS in cell free settings (DCFH/H2O2); settings: relative acceleration of the rate of DCFH fluorescence increase with H2O2, pH 7.4; FeSO4 = 1.0
# Excerpt: As previously reported, the NAAF-prodrugs react with ROS like H2O2, first leading to the cleavage of the B-C-bond with the formation of the phenol derivatives (product 2c-1, Figure S49, SI). The latter compounds exist in equilibrium with the corresponding phenolates. The phenolates undergo the spontaneous 1,6-elimination of para-quinone methide (QM) followed by the release of CO2 with the formation of the N-alkylaminoferrocene NAAF drugs (product 2c-2, Figure S46, SI). By using electrospray ionization mass spectrometry (ESI–MS), we confirmed for one representative prodrug 2c that it reacts with H2O2 in cell free settings according to this common mechanism (ESI-MS, Figures S46–S48, SI). The NAAF is further oxidized by H2O2 or molecular oxygen with the generation of drug NAAF^+ and highly toxic HO• or/and O2^•−. Finally, the NAAF^+ is reduced by glutathione (GSH), thereby closing the catalytic cycle, in which the NAAF acts as a catalyst. We evaluated the formation of HO• or/and O2^•− by using 2′,7′-dichlorodihydrofluorescein (DCFH) as a probe (Table 1, Figure S49, SI). This probe is oxidized to the fluorescent product 2′,7′-dichlorofluorescein (DCF) in the presence of HO• or/and O2^•−. […] The lower activity of 2c and 2d correlates with their higher lipophilicity and their correspondingly higher propensity to form aggregates in aqueous solution (Figure S45, SI).
# Prodrug-induced generation of ROS in cell free settings
# 2',7'-Dichlorodihydrofluorescein diacetate (DCFH-DA, 4.9 mg) was dissolved in DMF (100 μL) and mixed with aqueous NaOH (0.1 M, 900 μL). The resulting mixture was incubated for 30 min at 22 °C in the dark to obtain a stock solution of 2',7'-dichlorodihydrofluorescein (DCFH, 10 mM). Next, DCFH (1 µL ) was added to the solution containing MOPS buf fer (100 mM, pH 7.4), N,N,N'N' -e thylenediaminetetraacetic acid (EDTA , 10 mM) and glutathione (GSH , 5 mM) (1 mL, final concentration of DCFH 10 μM). The reaction mixture was heated to 37 °C and H2O2 (1 µL, final concentration 10 mM) was added. The reaction was monitored by fluorescence spectroscopy: λex = 501 nm, λem = 523 nm. After around 5 min, prodrugs (1 mM in DMF, 10 μL) or positive control FeSO4 (1 mM in water, 10 μL) were added, and the fluorescence monitoring was continued until the fluorescence signal growth was stalled after approximately 100 to 300 min. A representative kinetics of ROS […]
# The data are presented in Table 1 as relative acceleration of the rate of the fluorescence increase, where the rate of the fluorescence increase obtained in the presence of positive control FeSO4 was set […]
# y = a time + b (a = (dF/dt) , min-1)
# Figure S49. Increase of the fluorescence intensity (λex = 501 nm, λem = 523 nm) upon oxidation of DCFH by H2O2 in the presence of FeSO4. Experimental details are provided in the description above. The time point of the FeSO4 addition is indicated with a black […]
# (also on this page, place not known: ° C µL) buffer N,N,N'N'-ethylenediaminetetraacetic (EDTA, (GSH, ° C FeSO 4 (λ ex λ em Fluorescence (a.u.) (dF/dt)0, min -1 Addition of)
# (1 picture or pasted object on this page, not shown here)
# Jurkat cells = assay: Jurkat flow cytometry (AnnexinA5/PI viability, DiIC1(5) MMP, monobromobimane GSH, cell cycle); assay type: cell-based, human; settings: 48 h incubation
# Protocol: Jurkat cells The cells were counted in MUSE Cell Analyzer using MUSE® Count &Viability Assay Kit (Merck-Millipore, Billerica, MA, USA) and adjusted to a density of 1.0 x 10^5/ml in RPMI 1640 medium (with 10% FCS and 1% glutamine). 9.000 cells per well per 90 µL were seeded into 96 well culture plates. The 30 mM prodrug stock solutions in DMSO were diluted to 300 µM, 100 µM, 30 µM and 10 µM in cell culture medium and 10 µL of the dilutions was pipetted to the cells, receiving final test concentrations of 30 µM, 10 µM, 3 µM and 1 µM. Every concentration was tested in triplicates. Cells with corresponding amounts of DMSO served as negative controls. After 48 h cells were mixed and 25 µL of […]
# the cell suspension was incubated with 200 µL of freshly prepared staining solution, consisting of AnnexinA5-Fitc (1 µL), 1,1′,3,3,3′,3′-hexamethylindodicarbocyanine iodide (DiIC1(5), 0.4 µL) (both from ThermoFisher Scientific, Waltham, MA, USA), propidium iodide (PI, 67 ng) and monobromobimane (MBB, 33 µM, both from Sigma-Aldrich, Taufkirchen, Germany) per 1 ml Ringer’s solution (Fresenius Kabi AG, Bad Homburg, Germany). Cells were incubated for 20 min at 4°C and then analyzed in Gallios cytofluorometer™ (Beckman Coulter, Fullerton, CA, USA). Fitc and propidium iodide were excited at 488 nm; Fitc fluorescence was recorded on the FL1 sensor (525/38 nm band pass, BP) and propidium iodide fluorescence was detected on FL3 sensor (620/30 nm BP), DiIC1(5) fluorescence was excited at 638 nm and detected on FL6 sensor at 675/20 nm BP, and monobromobimane fluorescence was excited at 405 nm and detected on FL9 sensor at 430/40 nm BP. To eliminate any fluorescence bleed-through, electronic compensation was used. Data were analyzed employing Kaluza™ software Version 1.2 (Beckman Coulter, Fullerton, CA, USA) and processed in Microsoft Excel (Figures S51-S54, Table S5). Cells negative for Annexin A5-Fitc and propidium iodide were considered viable. IC50 values were determined by fitting the % values of Ax-PI- cells versus drug concentration with a sigmoidal curve using GraphPad Prism software. Reduced glutathione (an intracellular thiol) can be detected by monobromobimane, a dye that becomes fluorescent after non-enzymatic binding to thiols.[S3] For analysis of amount of mitochondrial membrane potential or reduced glutathione the mean fluorescence index (MFI) was determined from viable cells by gating on Ax -PI- events.
# Table S5. Effects of the prodrugs on the viability of Jurkat cell lines (IC50 values) after 48
# BL-2 cells = assay: Cell viability, MTT assay, BL-2; assay type: cell-based, human; settings: BL-2, 48 h incubation
# Protocol: as §1, §2, §3
# The absorbance at 690 nm was taken as a baseline value. The baseline corrected absorbance at 590 nm (A(590 nm) − A(690 nm)) was applied to calculate the relative number of viable cells. IC50 values were determined by fitting the experimental data expressing the number of viable cells (%, Y-axis) versus drug concentration (μM, X-axis) with a line curve and the X-axis value corresponding to 50% viability was considered as IC50 value according to the line curve (Figure S50, Table S2).
# BL-2 cells: The cells were centrifuged, the medium was removed, and the cells were washed two times with DPBS and re-suspended in RPMI 1640 medium containing 5% (48 h incubation) or 10% FBS (96 h incubation), 1% L-glutamine, and 1% penicillin/ streptomycin. This suspension was spread in the wells of a 96-well microtiter plate (50000 cells per well per 100 μL). Other steps were identical to those was described in determination of viability of adherent cells (given above) (Table S3).
compound,measurement,setting,value
CC1(C)OB(c2ccc(COC(=O)N(Cc3cn(Cc4ccccc4)nn3)[c-]3cccc3)cc2)OC1(C)C.[Fe+2].c1cc[cH-]c1 [2a],"cancer cell specificity, primary CLL cells vs MNCs",[1],some specificity towards primary CLL cells
same,logP (Hydrolyzed Prodrug),[2],2.92 ± 0.14
same,logP (Prodrug),[2],5.27 ± 0.10
same,IC50,"A2780 cells; A2780, 24 h incubation",23.7 ± 0.6 µM
same,IC50,"A2780 cells; A2780, 48 h incubation",16.2 ± 1.8 µM
same,IC50,"A2780 cells; A2780, 96 h incubation",10.5 ± 0.7 µM
same,Solubility,[3],100 µM
same,first signs of precipitation,"[3]; immediately after dilution in RPMI 1640, FBS 5%",50 µM
same,ROS Release Efficacy,[4],0.74 ± 0.19
CN(C)C(=O)c1ccc(COC(=O)N(Cc2cn(Cc3ccc(Cn4cc(Cc5ccccc5)nn4)cc3)nn2)[c-]2cccc2)cc1.[Fe+2].c1cc[cH-]c1 [2c_c],logP (Prodrug),[2],3.90 ± 0.08
same,IC50,"A2780 cells; A2780, 96 h incubation",6.1 ± 1.5 µM
same,Solubility,[3],55 ± 5 µM
same,ROS Release Efficacy,[4],0.050 ± 0.003
O=C(OCc1ccc(B(O)O)cc1)N(Cc1cn(Cc2ccc(Cn3cc(Cc4ccccc4)nn3)cc2)nn1)[c-]1cccc1.[Fe+2].c1cc[cH-]c1 [2c_BA],logP (Hydrolyzed Prodrug),[2],3.23 ± 0.11
"C1=CCC=C1.CC1(C)OB(c2ccc(COC(=O)N(Cc3cn(CCC[P+](c4ccccc4)(c4ccccc4)c4ccccc4)nn3)C3C=CC=C3)cc2)OC1(C)C.[Fe+2] [5c, reference compound]",IC50,Jurkat cells,20 µM
same,IC50,BL-2 cells,5 µM
same,IC50,"A2780 cells; A2780, 24 h incubation",10 ± 3 µM
same,IC50,"A2780 cells; A2780, 48 h incubation",5 ± 2 µM
same,IC50,"A2780 cells; A2780, 96 h incubation",5 ± 2 µM
[Fe+2].c1cc[cH-]c1.c1ccc(Cn2cc(CN[c-]3cccc3)nn2)cc1 [compound 3],IC50,"A2780 cells; A2780, 48 h incubation",> 50 µM
"CCOC(=O)CCCCCn1cc(CN(C(=O)OCc2ccc(B(O)O)cc2)[c-]2cccc2)nn1.[Fe+2].c1cc[cH-]c1 [1_BA, reference compound]",logP (Hydrolyzed Prodrug),[2],2.83 ± 0.07
[Fe+2].c1cc[cH-]c1.c1ccc(CN[c-]2cccc2)cc1 [compound 4],IC50,"A2780 cells; A2780, 48 h incubation",> 50 µM
